Source: ChEMBL document CHEMBL5579877, “Design and Evaluation of 3-Phenyloxetane Derivative Agonists of the Glucagon-Like Peptide-1 Receptor” (J Med Chem, 2024)
Active and inactive are the calls of the source. The rule behind the calls is not given here.

Tests used:
[1] = Tmax in cynomolgus monkey at 2 mg/kg, iv; type: ADME, organism-based, Macaca fascicularis; conditions: in vivo
[2] = Cmax in rat at 5 mg/kg, po by LC-MS/MS analysis; type: ADME, organism-based; conditions: in vivo
[3] = AUC in rat at 2 mg/kg, iv by LC-MS/MS analysis; type: ADME, organism-based; conditions: in vivo
[4] = biological target: T1, Cytochrome P450 2B6 (Homo sapiens, UniProt P20813); assay: Inhibition of CYP2B6 in human liver microsomes using bupropion as substrate preincubated for 5 mins followed by NADPH addition and measured after 10 mins by LC-MS/MS analysis; type: ADME, Microsome
T1 sequence (P20813 whole entry): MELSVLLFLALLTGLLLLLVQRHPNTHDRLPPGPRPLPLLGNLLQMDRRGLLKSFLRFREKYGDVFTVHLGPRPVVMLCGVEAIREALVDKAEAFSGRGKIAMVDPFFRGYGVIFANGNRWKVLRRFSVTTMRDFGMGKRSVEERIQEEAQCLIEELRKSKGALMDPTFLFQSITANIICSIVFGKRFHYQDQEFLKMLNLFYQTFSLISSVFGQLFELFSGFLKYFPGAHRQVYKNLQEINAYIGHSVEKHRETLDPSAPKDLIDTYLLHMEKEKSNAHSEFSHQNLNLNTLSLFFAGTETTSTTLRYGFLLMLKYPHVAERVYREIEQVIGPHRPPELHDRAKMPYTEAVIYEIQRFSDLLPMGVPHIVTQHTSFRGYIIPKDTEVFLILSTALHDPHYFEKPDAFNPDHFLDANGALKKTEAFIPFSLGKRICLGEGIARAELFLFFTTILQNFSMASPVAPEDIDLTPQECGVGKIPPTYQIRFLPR

[5] = Metabolic stability in human liver microsomes assessed as half life at […] incubated upto 45 mins in presence of NADPH by LC-MS/MS analysis; type: ADME, Microsome
[6] = biological target: Cytochrome P450 2C9 (Homo sapiens, UniProt P11712); assay: Inhibition of CYP2C9 in human liver microsomes using diclofenac as substrate preincubated for 5 mins followed by NADPH addition and measured after 10 mins by LC-MS/MS analysis; type: ADME, Microsome
[7] = biological target: T2, Cytochrome P450 3A4 (Homo sapiens, UniProt P08684); assay: Inhibition of CYP3A4 in human liver microsomes using midazolam as substrate preincubated for 5 mins followed by NADPH addition and measured after 5 mins by LC-MS/MS analysis; type: ADME, Microsome
[8] = Cmax in cynomolgus monkey at 2 mg/kg, iv; type: ADME, organism-based, Macaca fascicularis; conditions: in vivo
[9] = system: Mus musculus; assay: Reduction in blood glucose level in human GLP-1R knock-in mouse at 1 mg/kg, po pretreated for 1 to 4 hrs followed by glucose addition and measured upto 120 mins by glucose meter; type: functional, organism-based; conditions: time 180-360 min
[10] = Half-life in rat at 5 mg/kg, po by LC-MS/MS analysis; type: ADME, organism-based; conditions: in vivo
[11] = biological target: Cytochrome P450 2D6 (Homo sapiens, UniProt P10635); assay: Inhibition of CYP2D6 in human liver microsomes using dextromethorphan as substrate preincubated for 5 mins followed by NADPH addition and measured after 20 mins by LC-MS/MS analysis; type: ADME, Microsome
[12] = Apparent volume of distribution in ICR mouse at 2 mg/kg, iv by LC-MS/MS analysis; type: ADME, organism-based; conditions: in vivo, read-out: Vz
[13] = biological target: Cytochrome P450 2C19 (Homo sapiens, UniProt P33261); assay: Inhibition of CYP2C19 in human liver microsomes using S-mephenytoin as substrate preincubated for 5 mins followed by NADPH addition and measured after 45 mins by LC-MS/MS analysis; type: ADME, Microsome
[14] = Half-life in ICR mouse at 2 mg/kg, iv by LC-MS/MS analysis; type: ADME, organism-based; conditions: in vivo
[15] = biological target: T3, Cytochrome P450 1A2 (Homo sapiens, UniProt P05177); assay: Inhibition of CYP1A2 in human liver microsomes using phenacetin as substrate preincubated for 5 mins followed by NADPH addition and measured after 10 mins by LC-MS/MS analysis; type: ADME, Microsome
T3 sequence (P05177 whole entry): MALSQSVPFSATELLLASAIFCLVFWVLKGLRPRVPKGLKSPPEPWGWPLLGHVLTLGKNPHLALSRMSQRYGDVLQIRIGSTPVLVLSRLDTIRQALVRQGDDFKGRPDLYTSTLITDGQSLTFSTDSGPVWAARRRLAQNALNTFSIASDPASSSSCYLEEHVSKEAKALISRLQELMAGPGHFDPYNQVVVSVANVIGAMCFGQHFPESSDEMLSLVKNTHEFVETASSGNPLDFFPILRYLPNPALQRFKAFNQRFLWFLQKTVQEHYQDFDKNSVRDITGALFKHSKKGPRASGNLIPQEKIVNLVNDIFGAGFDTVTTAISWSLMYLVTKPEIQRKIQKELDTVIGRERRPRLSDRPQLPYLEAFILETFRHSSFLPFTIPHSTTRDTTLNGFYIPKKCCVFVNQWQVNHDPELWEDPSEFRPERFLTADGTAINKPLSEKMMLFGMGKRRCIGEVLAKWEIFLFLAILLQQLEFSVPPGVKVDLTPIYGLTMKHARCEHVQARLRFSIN

[16] = Permeability across apical to basolateral in human Caco-2 cells at 10 uM incubated for 120 mins by LC-MS/MS analysis; type: ADME, cell-based; conditions: read-out: permeability
[17] = AUC in rat at 5 mg/kg, po by LC-MS/MS analysis; type: ADME, organism-based; conditions: in vivo
[18] = biological target: T2, Cytochrome P450 3A4; assay: Inhibition of CYP3A4 in human liver microsomes using testosterone as substrate preincubated for 5 mins followed by NADPH addition and measured after 5 mins by LC-MS/MS analysis; type: ADME, Microsome
[19] = AUC in ICR mouse at 2 mg/kg, iv by LC-MS/MS analysis; type: ADME, organism-based; conditions: in vivo
[20] = Oral bioavailability in rat at 5 mg/kg by LC-MS/MS analysis; type: ADME, organism-based; conditions: in vivo
[21] = Oral clearance in rat at 5 mg/kg, po by LC-MS/MS analysis; type: ADME, organism-based; conditions: in vivo
[22] = Cmax in ICR mouse at 5 mg/kg, po by LC-MS/MS analysis; type: ADME, organism-based; conditions: in vivo
[23] = Apparent volume of distribution in rat at 2 mg/kg, iv by LC-MS/MS analysis; type: ADME, organism-based; conditions: in vivo, read-out: Vz
[24] = Oral bioavailability in ICR mouse at 5 mg/kg by LC-MS/MS analysis; type: ADME, organism-based; conditions: in vivo
[25] = Half-life in ICR mouse at 5 mg/kg, po by LC-MS/MS analysis; type: ADME, organism-based; conditions: in vivo
[26] = Oral clearance in ICR mouse at 5 mg/kg, po by LC-MS/MS analysis; type: ADME, organism-based; conditions: in vivo

T2 sequence (P08684 whole entry): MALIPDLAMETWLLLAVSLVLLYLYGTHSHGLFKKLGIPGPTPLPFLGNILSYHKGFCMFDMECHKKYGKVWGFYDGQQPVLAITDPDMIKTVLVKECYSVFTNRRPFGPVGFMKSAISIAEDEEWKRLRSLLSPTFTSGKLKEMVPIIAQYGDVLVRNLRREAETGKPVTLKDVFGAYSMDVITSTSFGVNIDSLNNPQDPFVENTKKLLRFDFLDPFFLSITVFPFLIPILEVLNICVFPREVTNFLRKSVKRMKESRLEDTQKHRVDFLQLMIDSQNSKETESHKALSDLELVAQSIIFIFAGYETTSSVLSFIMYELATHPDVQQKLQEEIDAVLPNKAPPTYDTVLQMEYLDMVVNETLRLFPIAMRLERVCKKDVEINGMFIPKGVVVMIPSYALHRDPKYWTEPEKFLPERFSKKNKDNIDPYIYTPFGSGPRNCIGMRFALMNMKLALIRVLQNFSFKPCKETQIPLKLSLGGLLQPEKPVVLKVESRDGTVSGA
Cytochrome P450 2C9, sequence (P11712 whole entry): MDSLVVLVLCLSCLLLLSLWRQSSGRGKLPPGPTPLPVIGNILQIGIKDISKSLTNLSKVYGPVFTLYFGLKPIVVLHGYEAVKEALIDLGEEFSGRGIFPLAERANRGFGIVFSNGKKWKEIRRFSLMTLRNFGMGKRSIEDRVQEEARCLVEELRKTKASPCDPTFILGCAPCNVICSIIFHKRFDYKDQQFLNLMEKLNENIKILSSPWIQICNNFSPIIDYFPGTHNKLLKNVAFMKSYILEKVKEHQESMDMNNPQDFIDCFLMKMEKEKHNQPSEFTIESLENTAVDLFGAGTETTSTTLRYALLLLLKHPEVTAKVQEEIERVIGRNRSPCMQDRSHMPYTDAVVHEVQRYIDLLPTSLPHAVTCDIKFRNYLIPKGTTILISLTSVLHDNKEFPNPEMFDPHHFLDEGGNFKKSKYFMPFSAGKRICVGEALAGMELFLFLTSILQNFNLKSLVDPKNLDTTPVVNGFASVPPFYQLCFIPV
Cytochrome P450 2D6, sequence (P10635 whole entry): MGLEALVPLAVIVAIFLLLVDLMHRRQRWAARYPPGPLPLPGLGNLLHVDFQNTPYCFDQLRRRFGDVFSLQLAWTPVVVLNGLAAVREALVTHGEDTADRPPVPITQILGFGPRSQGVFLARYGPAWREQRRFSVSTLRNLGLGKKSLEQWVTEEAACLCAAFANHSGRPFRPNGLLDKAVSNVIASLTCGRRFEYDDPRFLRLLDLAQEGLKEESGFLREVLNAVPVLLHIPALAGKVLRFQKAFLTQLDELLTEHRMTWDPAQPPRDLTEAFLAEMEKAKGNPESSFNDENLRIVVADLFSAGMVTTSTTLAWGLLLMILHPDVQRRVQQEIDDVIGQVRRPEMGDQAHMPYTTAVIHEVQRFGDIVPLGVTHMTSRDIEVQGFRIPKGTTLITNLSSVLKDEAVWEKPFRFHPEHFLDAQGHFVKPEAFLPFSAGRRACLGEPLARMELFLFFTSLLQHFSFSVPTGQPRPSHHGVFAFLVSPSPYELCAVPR
Cytochrome P450 2C19, sequence (P33261 whole entry): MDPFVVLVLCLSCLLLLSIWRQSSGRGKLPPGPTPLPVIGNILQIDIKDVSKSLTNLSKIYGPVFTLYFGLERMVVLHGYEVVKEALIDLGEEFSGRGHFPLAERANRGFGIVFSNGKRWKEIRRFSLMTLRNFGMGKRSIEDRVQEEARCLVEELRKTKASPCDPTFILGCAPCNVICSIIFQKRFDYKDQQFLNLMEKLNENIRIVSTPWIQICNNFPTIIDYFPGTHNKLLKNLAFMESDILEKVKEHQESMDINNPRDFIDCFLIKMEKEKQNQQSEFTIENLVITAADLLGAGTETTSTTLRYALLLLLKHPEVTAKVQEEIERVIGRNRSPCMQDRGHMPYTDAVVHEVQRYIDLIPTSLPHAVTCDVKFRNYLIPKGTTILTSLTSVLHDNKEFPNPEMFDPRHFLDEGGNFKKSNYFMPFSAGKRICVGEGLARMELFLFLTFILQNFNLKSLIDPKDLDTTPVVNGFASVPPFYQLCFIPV

Compound | Tmax [1] [h] | Cmax [2] [ng/mL] | AUC [3] [ng·h/mL] | IC50 [4] [µM] | half-life [5] [h] | IC50 [6] [µM] | IC50 [7] [µM] | Cmax [8] [nM] | Activity [9] | half-life [10] [h] | IC50 [11] [µM] | Vd [12] [L/kg] | IC50 [13] [µM] | half-life [14] [h] | IC50 [15] [µM] | Papp A→B at 2 h, 10 µM [16] [×10⁻⁶ cm/s] | AUC [17] [ng·h/mL] | IC50 [18] [µM] | AUC [19] [ng·h/mL] | bioavailability [20] [%] | other results
O=C(O)c1ccc2nc(CN3CCC(c4cccc(OCc5ccc(C6COC6)cc5F)n4)CC3)n(C[C@@H]3CCO3)c2c1 | 1.39 | 190 | 530 | > 10 | 2.17 | > 10 | > 10 | 207 | Active | 0.84 | > 10 | 12.2 | > 10 | 7.04 | > 10 | 3.14 | 180 | > 10 | 1670 | 12.8 | CL/F [21]: 52.8 mL/min/kg; Cmax [22]: 2090 ng/mL; Vd [23]: 1.37 L/kg; bioavailability [24]: 53.1%; half-life [25]: 3.86 h; CL/F [26]: 41.8 mL/min/kg
N#Cc1ccc(COc2cccc(C3CCN(Cc4nc5ccc(C(=O)O)cc5n4C[C@@H]4CCO4)CC3)n2)c(F)c1 [DANUGLIPRON] | 1.21 | 110 | 520 | > 10 | 1.87 | > 10 | > 10 | 670 | Active | 1.33 | > 10 | 4.26 | > 10 | 2.46 | > 10 | 3.93 | 170 | > 10 | 1670 | 10.2 | CL/F [21]: 554 mL/min/kg; Cmax [22]: 2840 ng/mL; Vd [23]: 1.98 L/kg; bioavailability [24]: 54.2%; half-life [25]: 1.62 h; CL/F [26]: 36.5 mL/min/kg
